The values below come from ChEMBL document CHEMBL1142415, “5-tert-butyl-N-pyrazol-4-yl-4,5,6,7-tetrahydrobenzo[d]isoxazole-3-carboxamide derivatives as novel potent inhibitors of Mycobacterium tuberculosis pantothenate synthetase: initiating a quest for new antitubercular drugs” (J Med Chem, 2008).

As a reminder, the inhibition is the drop in the measured response relative to a control, in per cent. Low values mean a response near the control, high ones a response far below the control. One may read the IC50 as the concentration at which inhibition is half-maximal. Low readings indicate greater potency in that assay, high ones weaker potency in that assay.

Experiment [1] has as its target T1, Pantothenate synthetase (Mycobacterium tuberculosis) (UniProt P9WIL5).
T1 sequence (whole entry): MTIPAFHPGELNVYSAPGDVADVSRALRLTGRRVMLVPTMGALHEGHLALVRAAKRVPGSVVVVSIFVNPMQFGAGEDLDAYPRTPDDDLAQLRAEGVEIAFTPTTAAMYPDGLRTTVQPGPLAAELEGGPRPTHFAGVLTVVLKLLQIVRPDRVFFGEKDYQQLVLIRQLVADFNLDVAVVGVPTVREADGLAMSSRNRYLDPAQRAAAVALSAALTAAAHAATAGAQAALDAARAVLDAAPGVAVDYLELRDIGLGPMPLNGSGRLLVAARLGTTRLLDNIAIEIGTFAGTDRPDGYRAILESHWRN
Kind of experiment: Inhibition of Mycobacterium tuberculosis pantothenate synthetase at 100 uM.

The target in the next experiment is T2, Pantothenate synthetase (Mycobacterium tuberculosis, UniProt P9WIL5).
T2 sequence (P9WIL5 whole entry): T1 sequence (whole entry)
Kind of experiment: Inhibition of Mycobacterium tuberculosis pantothenate synthetase.

For experiment [2], the system named is Mycobacterium tuberculosis. Nature of the experiment: Antibacterial activity against Mycobacterium tuberculosis at 128 uM by MABA assay. The class given is functional. (The colour change of resazurin is a common sign of viable cells or microbes.)
In experiment [3] the test system is Mycobacterium tuberculosis. Kind of experiment: Antibacterial activity against Mycobacterium tuberculosis at 128 uM by LORA assay. Format: functional.

The compound `CC(C)(C)C1CCc2onc(C(=O)Nc3cnn(Cc4ccc(F)cc4)c3)c2C1` (centres undefined) yielded an inhibition in experiment [1] of 98%. The IC50 at Pantothenate synthetase is 150 nM. Besides, the inhibition at 128 µM in experiment [2] and in experiment [3] was 0% throughout.

Turning to `CC(C)(C)C1CCc2onc(C(=O)Nc3cnn(Cc4ccc(C(=O)O)cc4)c3)c2C1` (centres undefined), the inhibition in experiment [1] was 99%. The compound further registered an IC50 against Pantothenate synthetase of 460 nM. In addition, the inhibition at 128 µM was 41% in experiment [2] and 2% in experiment [3].

The compound `CC(C)(C)C1CCc2onc(C(=O)Nc3cnn(Cc4ccc(Cl)cc4)c3)c2C1` (centres undefined) returned an inhibition in experiment [1] of 98%. In addition, inhibition on Pantothenate synthetase was half-maximal at 140 nM (IC50).

Consider `CC(C)(C)OC(=O)c1ccc(Cn2cc(NC(=O)c3noc4c3CC(C(C)(C)C)CC4)cn2)cc1` (centres undefined), for which the inhibition in experiment [1] worked out at 79%. The compound also came in with an IC50 at Pantothenate synthetase of 250 nM.

In experiment [1], `CC(C)(C)C1CCc2onc(C(=O)Nc3cnn(Cc4ccc5ccccc5c4)c3)c2C1` (centres undefined) returned an inhibition of 97%. On Pantothenate synthetase, this compound came in with an IC50 of 90 nM. Further, the inhibition at 128 µM in experiment [2] was determined as 43%.

`CC(C)(C)C1CCc2onc(C(=O)Nc3cnn(Cc4ccccc4)c3)c2C1` (centres undefined) returned an inhibition in experiment [1] of 100%. For the same compound, the IC50 against Pantothenate synthetase was 97 nM. Further, the results for the inhibition at 128 µM in experiment [2] and in experiment [3] were 84% and 62%, respectively.

`CC(C)(C)C1CCc2onc(C(=O)O)c2C1` (centres undefined) returned an inhibition in experiment [1] of 12%. For the same compound, the inhibition at 128 µM in experiment [2] was determined as 5%; in experiment [3], 11%.

Consider `COc1ccc(Cc2noc(NC(=O)c3noc4c3CC(C(C)(C)C)CC4)c2C(N)=O)cc1` (centres undefined), for which, in experiment [1], the inhibition was 79%. This compound returned an IC50 at Pantothenate synthetase of 7130 nM. The inhibition at 128 µM in experiment [2] and in experiment [3] was 14% throughout.

With `O=C(Nc1cnn(Cc2ccc(Cl)cc2Cl)c1)c1noc2c1CCCC2`, the inhibition in experiment [1] came out at 18%. The values for the inhibition at 128 µM in experiment [2] and in experiment [3] were 70% and 53%, respectively.

The compound `CC(C)(C)C1CCc2onc(C(=O)Nc3cnn(Cc4ccc(C(=O)NCCc5ccccc5)cc4)c3)c2C1` (centres undefined) had an inhibition in experiment [1] of 78%. Also, at Pantothenate synthetase, the IC50 came out at 140 nM. The inhibition at 128 µM came to 19% in experiment [2] and 11% in experiment [3].

With `CC(C)(C)C1CCc2onc(C(=O)Nc3cnn(Cc4ccc(C(=O)NCc5ccccc5)cc4)c3)c2C1` (centres undefined), the inhibition in experiment [1] came out at 82%. The IC50 at Pantothenate synthetase turned out to be 210 nM. For the same compound, the inhibition at 128 µM in experiment [2] is 54%; in experiment [3], 46%.

For the compound `CC(C)(C)C1CCc2onc(C(=O)Nc3cnn(Cc4ccccc4Br)c3)c2C1` (centres undefined), the inhibition in experiment [1] amounted to 94%. The midpoint of inhibition against Pantothenate synthetase, the IC50, lay at 140 nM. The inhibition at 128 µM in experiment [2] was determined as 73%; in experiment [3], 24%.

`CC(C)(C)C1CCc2onc(C(=O)Nc3cnn(Cc4ccc(F)cc4F)c3)c2C1` (centres undefined) displayed an inhibition in experiment [1] of 100%. For the same compound, the IC50 on Pantothenate synthetase stood at 130 nM. Also, the inhibition at 128 µM in experiment [2] turned out to be 56%; in experiment [3], 47%.

Regarding `CC(C)(C)C1CCc2onc(C(=O)Nc3cn[nH]c3)c2C1` (centres undefined), the inhibition in experiment [1] turned out to be 43%. On Pantothenate synthetase, half-maximal inhibition (IC50) was put at 61000 nM. Further, the inhibition at 128 µM was 60% in experiment [2] and 4% in experiment [3].

In experiment [1], `COC(=O)c1ccc(Cn2cc(NC(=O)c3noc4c3CC(C(C)(C)C)CC4)cn2)cc1` (centres undefined) registered an inhibition of 100%. The same compound returned an IC50 against Pantothenate synthetase of 160 nM. Further, the inhibition at 128 µM in experiment [2] is 48%; in experiment [3] it was 0%.

Compound `CC(C)(C)C1CCc2onc(C(=O)Nc3cnn(C(=O)c4c(Cl)cc(Cl)cc4Cl)c3)c2C1` (centres undefined) displayed an inhibition in experiment [1] of 17%. In addition, the inhibition at 128 µM came out at 34% in experiment [2] and 26% in experiment [3].

Regarding `CC(C)(C)C1CCc2onc(C(=O)Nc3cnn(Cc4ccccc4I)c3)c2C1` (centres undefined), the inhibition in experiment [1] was found to be 84%. The compound also returned an IC50 against Pantothenate synthetase of 160 nM. Moreover, the inhibition at 128 µM in experiment [2] amounted to 70%; in experiment [3], 12%.

`Cc1ccccc1Cn1cc(NC(=O)c2noc3c2CC(C(C)(C)C)CC3)cn1` (centres undefined) came in with an inhibition in experiment [1] of 89%. Moreover, the IC50 at Pantothenate synthetase was found to be 120 nM. Also, the inhibition at 128 µM in experiment [2] was 46%; in experiment [3], 15%.
